# Measured values: BindingDB's records for doi:10.1016/0960-894X(95)00360-6 (1995)
# Assay: Ability to inhibit calf thymus topoisomerase I when assayed in the cleavable complex formation
row,Structure (SMILES),IC50
1,"CC[C@@]1(O)C(=O)OCc2c1cc1n(c2=O)Cc2cc3cc4ncoc4cc3nc2-1 [7-ethyl-7-hydroxy-(7S)-7,8,11,13-tetrahydro-10H-[1,3]oxazolo[4,5-g]pyrano[3',4':6,7]indolizino[1,2-b]quinoline-8,11-dione]",150 nM
2,"CC[C@@]1(O)C(=O)OCc2c1cc1n(c2=O)Cc2cc3cc(N)c(O)cc3nc2-1 [(S)-9-Amino-4-ethyl-4,8-dihydroxy-1,12-dihydro-4H-2-oxa-6,12a-diaza-dibenzo[b,h]fluorene-3,13-dione]",170 nM
